Among the data in the Kinase Knowledgebase extract (Sharma et al. 2016) are IC50 values, retold here.

pIC50: −log10 of the molar value.

The target of this assay is CDK2 (UniProt P24941). Description: Enzyme Assay.
`O=C1CCCN1CCCNc1nccc(-c2cnn3ncccc23)n1` had a pIC50 of more than 7.00.

`c1cc(Nc2nccc(-c3cnn4ncccc34)n2)cc(-c2cnco2)c1` gave a pIC50 of more than 7.00.

Compound `CN1CCN(c2ccc(Nc3nccc(-c4cnn5ncccc45)n3)cc2Cl)CC1` showed a negative logarithm of the IC50 (pIC50) of more than 7.00.

For the compound `N#Cc1cccc(Nc2nccc(-c3cnn4ncccc34)n2)c1`, the pIC50 was more than 7.00.

`FC(F)(F)c1cccc(Nc2nccc(-c3cnn4ncccc34)n2)c1` gave a pIC50 of more than 7.00.

On to `NS(=O)(=O)c1ccc(Nc2nccc(-c3cnn4ncccc34)n2)cc1`, for which the negative logarithm of the IC50 (pIC50) is more than 7.00.

`Clc1ccccc1-c1ccc2c(-c3ccnc(NC4CC4)n3)cnn2n1` showed a negative logarithm of the IC50 (pIC50) of more than 6.00.

`O=[N+]([O-])c1cccc(Nc2nccc(-c3cnn4ncccc34)n2)c1` showed a negative-log IC50 (pIC50) of more than 7.00.

Compound `CN(C)c1ccc(Nc2nccc(-c3cnn4nc(N5CCOCC5)ccc34)n2)cc1` had a pIC50 of more than 6.00.

As to `Clc1ccc(Nc2nccc(-c3cnn4ncccc34)n2)cc1`, the negative logarithm of the IC50 (pIC50) is more than 7.00.

In turn, `Cc1cc(Nc2nccc(-c3cnn4ncccc34)n2)ccc1N1CCN(C)CC1` showed a negative logarithm of the IC50 (pIC50) of more than 7.00.

Compound `COc1ccc2c(-c3ccnc(NC4CC4)n3)cnn2n1` gave a pIC50 of more than 6.00.
